Molecules are shown by their SMILES.

Test [1] has as its system C2C12. Description: Western blot of myogenesis markers during differentiation. The test is classed as cell-based. The note with it: 1 μM. The procedure: (§1) Cells were lysed with RIPA buffer and protein concentration was determined by BCA. […] Variations in intensity were expressed as % of basal (day 0) and expressed as mean±SEM. All results were calculated as a percentage of non-differentiated controls to minimize the intrinsic variation among different experiments.
For orientation: Immunoblotting shows a protein as a band on a membrane.

Test [2] deals with C2C12. Description: cAMP concentration (ELISA). The note with it: myoblast, 1 μM, 5 minutes; control 0.58±0.13. The test is classed as cell-based. The procedure:
CAMP concentration was measured using the colorimetric cAMP ELISA kit following manufacture protocol for acetylated cell lysates (Cell Biolabs, San Diego, USA). Absorbance was measured at 450 nm using a microplate reader Tecan Spark 20M.
The CAMP signaling cascade has been linked to a delay in the onset of age-related muscle loss.
For orientation: ELISA stands for enzyme-linked immunosorbent assay.

Test [3] deals with C2C12. Description: Western blot of PKA isoforms, pCREB, EPAC1/2. The test is classed as cell-based. The conditions noted are these: 1 μM. The procedure:
as §1
To study the CAMP signaling pathway, we analyzed the expression of PKA on its three catalytic isoforms PKAα, PKAβ and PKAγ as well as EPAC1/2. […] Tenofovir reduced its phosphorylation (154±9% tenofovir vs 247±30% control at day 4, p<0.05, FIG. 3B).

In test [4] the test system is C2C12. Description: AMPK phosphorylation assay kit (short time points). The test is classed as cell-based. The conditions noted are these: myoblast, 1 μM, 10 min after switching to 2% HS; control 1.97±0.17. The method, then: Assay was performed with the AMPK phosphorilation assay kit (Abnova Corporation, Jhouzih St, Taiwan) as manufactor instructions and pAMPK was measured at λex/em 530/585 nm and 360/450 nm for total protein with Tecan Infinite.

Test [5] relates to K/B×N serum transfer-induced arthritis. Description: K/B×N serum transfer-induced arthritis, acute model: joint thickness, clinical score, body weight. The test is classed as in vivo, C57BL/6J mice. The procedure:
In their quest for a model of inflammatory arthritis which could display associated sarcopenia the inventors employed serum transfer from K/B×N progeny in 12-wk-old C57BL/6J mice. Arthritic K/B×N mice were generated by crossing KRN mice with NOD/Lt mice. Serum was collected and pulled. Age-matched, male recipient, 12-wk-old C57BL/6J mice were purchased from Charles River Laboratories (Barcelona, España). C57BL/6J mice were injected with pooled serum (100 μl, I.P.) from K/B×N mice on day 0 and 2.
(§2) Development of arthritis was assessed daily, and the severity of arthritis was assessed in each paw on a 4-point scale defined as follows: 0=normal appearance, 1=localized edema/erythema over one surface of the paw, 2=edema/erythema involving more than one surface of the paw, and 3-4=marked edema/erythema involving the whole paw. Scores of all 4 paws were added for a composite score. All motor activity tests were performed prior to serum inoculation and at the highest point of inflammation. Mice were euthanized on day 14. Gastronemius and quadriceps were collected for protein and RNA extraction. Tibialis and soleus were included for freeze histology following the indications of H. Meng (1). Bones were prepared for micro-computed tomography (microCT) and histology. White adipose tissue (WAT) and brown adipose tissue (BAT) were collected for histology and protein extraction. Blood was drawn and serum was isolated for measurement of inflammatory cytokines and C-reactive protein (CPR).
Animals were sacrificed 30 days after serum transfer.
as §2, with “Mice were weighted weekly. Development” for “Development”, “16 for acute inflammation model or 30 days for Inflammation resolved model. A representative photo of body structure and muscle of pawn were taken on this day.” for “14.”, “was” for “and quadriceps were”, “(see references in ref. 44).” for “(1).”, “histology.” for “histology. White adipose tissue (WAT) and brown adipose tissue (BAT) were collected for histology and protein extraction.”

The test system is the same in test [6]. Description: Serum CRP ELISA and serum cytokine array. The test is classed as in vivo, C57BL/6J mice. The conditions noted are these: arthritic mice + dipyridamole. The procedure:
For this purpose, they performed an array of protein expression of pro- and anti-inflammatory cytokines and chemokines in serum by using the Mouse Cytokine Array Q1 (RayBiotech, EEUU) which, simultaneously, detects 20 cytokines. The cytokines concentration was measured by fluorescence using GenePix following manufacture protocol for serum samples.
CRP concentration was measured using the colorimetric Mouse CRP ELISA kit following manufacture protocol for serum samples (Crystal Chem, USA). Absorbance was measured at 450 nm using a microplate reader Tecan Spark 20M.
Serum CRP were determined by Mouse CRP ELISA Kit (Crystal Chem, #80634), according to the instructions of the manufacturer. Absorbance was measured at 450 nm using a microplate reader Tecan Spark 20M.
The cytokines concentration was measured by fluorescence using GenePix 4000B following manufacture protocol for serum and frozen samples. Serum samples were used at 2-fold sample dilution. Frozen gastronemius were crushed using a mortar and a pestle cooled with liquid nitrogen. Next, gastronemius were homogenized in a sonicator and the protein isolated in the supernatant quantified with BCA assay. We used 100 μL (1 mg/ml) of total gastronemius protein for cytokine and chemokine array assay.

For test [7] the test system is unchanged. Description: Atrogenes mRNA expression (RT-PCR) in gastrocnemius. The conditions noted are these: RA+Dipy. The test is classed as in vivo, C57BL/6J mice. The method, then: Total RNA was isolated from crushed frozen gastrocnemius using TRIzol reagent (Roche Diagnostics, Barcelona, Spain) following manufacturer's instructions. A total of 1 μg RNA was reverse transcribed with a High Capacity cDNA Reverse Transcription Kit (Applied Biosystems, San Francisco, CA, USA) at […], including the following reagents, in the same reaction: RNase Inhibitor 1 U/μL, Random Hexamers […], MgCl2 5 mM, PCR buffer II 1× and dNTPs 1 mM. Relative quantification of gene expression was performed via real-time RT-PCR on a Step One Plus (Applied Biosystems) with Power UP SYBR Green MasterMix according to the manufacturer's protocol. The primers were provided from Sigma-Aldrich according to the primer bank at https://pga.mgh.harvard.edu/primerbank/. Gene expression levels were calculated with the ΔΔCt method.

In a further test the test system is C2C12 myoblast cell line. Description: Western blot of C2C12 under pro-inflammatory conditions with/without dipyridamole.

Method for C2C12 myoblast cell line: Western blot was performed as described above.
Protein concentration was determined by BCA. 4 μg for cells and 40-50 μg for tissue samples of protein was subjected to 6-15% SDS-PAGE and transferred to a nitrocellulose membrane. Membranes were blocked with 3% BSA in Tris-buffered saline containing 0.1% Tween-20 (TBS-T). After that, the membranes were incubated overnight at 4° C. with the primary antibodies for A2A, A2B, MHC (Thermo Fisher Scientific, Waltham, USA), AMPK, pAMPK (Thr172), p21, p16 (Cell signaling, Danvers, EEUU) (1:1000 each) and Pax-7 (Developmental Studies Hybridoma Bank, Houston, EEUU) (1:500 each).

For `OCCN(CCO)c1nc(N2CCCCC2)c2nc(N(CCO)CCO)nc(N3CCCCC3)c2n1` [dipyridamole, 2,6-bis(Diethanolamino)-4,8-dipiperidinopyrimido[5,4-d]pyrimidine], in the test with C2C12 [1] (day 1, control 315±58%), the “PAX7 protein expression (% of basal)” value is “revert the effect to control levels”. For the same compound, the “MyoD protein expression (% of basal)” value in the test with C2C12 [1] (day 2, control 182±8%) came to 162±29%. Moreover, in the test with C2C12 [1] (first 2 days of differentiation), the “Myf5 protein expression (% of basal)” value was “did not modulate”. In the test on C2C12 [2], this compound displayed a cAMP levels of 0.85±0.17. In addition, in the test on C2C12 [3] (day 4, control 247±30%), the “pCREB (% of basal)” value stood at 275±73%. In addition, the EPAC2 protein expression result in the test on C2C12 [3] (within differentiation) is reported as “decreased”. Further, the AMPK activation in the test on C2C12 [4] is reported as 2.89±0.29; with C2C12 myoblast cell line (cytokine/LPS ± dipyridamole 1 μM, day 4, control 222.7±23.9%) it was “did not increase AMPK levels”. This compound also showed a Weight loss in test [5] (arthritic mice, 2 weeks of treatment, arthritic 14.2±4.1%) of 6.2±3.4%. The “Paw (joint) thickness” value in test [5] (arthritic mice, daily dipyridamole, 2 wk, arthritic 1.72±0.09) came out at 0.5±0.01 mm. Besides, the “Clinical score (inflammation)” value in test [5] (arthritic mice, daily dipyridamole, 2 wk, arthritic 14±1) turned out to be 5±3. In addition, in test [5] (healthy mice, dipy alone, two weeks), the “Hind paw musculature (macroscopic)” value is “no significant changes”. Besides, the Percentage of weight result in test [5] (healthy mice, dipyridamole 25 mg/kg/day alone, 2 weeks) is reported as “did not change”. For the same compound, the Serum IL-9 in test [6] (arthritic 4.3±1.8) was found to be 13.1 ± 2.6 pg/mL. Moreover, the Serum VEGF in test [6] (arthritic 90±13.1) was 221 ± 40.3 pg/mL. For the same compound, the Serum IL-10 in test [6] (arthritic 117.6±5.2) was 166 ± 10 pg/mL. The “Serum CRP” value in test [6] (arthritic 4098±560, sham 2861±893) turned out to be 3543 ± 586 ng/mL. For the same compound, the “Atrogin-1 mRNA expression” value in test [7] (RA 5.40±1.37, Sham 1.94±0.33) was found to be 0.29±0.09. Further, in test [7] (RA 8.71±2.75, Sham 1.60±0.35), the “Murf1 mRNA expression” value is on record as 1.60±0.22. Besides, the “CREB expression (vs 100% basal)” value in the test with C2C12 myoblast cell line (24 h of differentiation) came out at 361.5±68.8%. Also, the PKAα expression in the test with C2C12 myoblast cell line (day 4, dipyridamole combined with IL-6, IL-6 alone 107±5.8%) is given as 245.3±34.3%; in the test on C2C12 myoblast cell line (day 4, dipyridamole combined with INFγ, INFγ alone 101.7±3.7%) it was 245.3±34.3%; in the test with C2C12 myoblast cell line (day 4, control 213.9±21.6%), 245.3±34.3%. Besides, the “Myogenesis (PAX7, MHC)” value in the test on C2C12 myoblast cell line (dipyridamole 1 μM alone) is “did not modulate myogenesis”.
